# From patent publication US11548888B2, “KRas G12C inhibitors” (Mirati Therapeutics, Inc., priority 2019, dated 2023)
# Biological target: T1, KRas G12C (Homo sapiens, UniProt P01116, G12C)
# T1 construct: NCI-H358 cells (ATCC CRL-5807) express KRas G12C
# Assay: Inhibition of KRas G12C-dependent cell growth: Phospho-ERK in NCI-H358 cells
# Format: cell-based
# Conditions: NCI-H358 cells expressing KRas G12C; Phospho-ERK (Thr202/Tyr204) normalized to GAPDH; 3 hours compound; 4 parameter fit
# How it was run: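 Phospho-ERK read-out in KRas G12C-expressing NCI-H358 cells after 3 h compound treatment (final DMSO 0.5%), by in-cell infrared immunodetection. Signal normalized to GAPDH and to DMSO controls. 4-parameter curve fit gave IC50.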
# T1 sequence (P01116 1-188 isoform P01116-2 G12C): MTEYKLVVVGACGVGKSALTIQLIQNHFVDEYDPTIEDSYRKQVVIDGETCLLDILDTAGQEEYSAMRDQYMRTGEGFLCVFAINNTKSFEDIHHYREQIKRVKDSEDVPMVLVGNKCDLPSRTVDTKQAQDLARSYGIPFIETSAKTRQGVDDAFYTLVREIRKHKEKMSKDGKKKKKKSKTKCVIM
row,SMILES,IC50 [nM]
1,C=CC(=O)N1CC[C@@H]2[C@H]1CN2c1ncnc2c(F)c(-c3c(O)ccc4ccccc34)ncc12 [Example 281],2340
2,C=CC(=O)N1CC[C@@H]2[C@H]1CN2c1nc(N)nc2c(F)c(-c3cccc4ccc(F)c(Cl)c34)ncc12 [Example 282],287
3,C=CC(=O)N1CC[C@@H]2[C@H]1CN2c1ncnc2c(F)c(-c3cccc4cccc(C)c34)ncc12 [Example 283],2430
4,C=CC(=O)N1CC[C@@H]2[C@H]1CN2c1ncnc2c(F)c(-c3cccc4cccc(Cl)c34)ncc12 [Example 284],557
5,C=CC(=O)N1CC[C@@H]2[C@H]1CN2c1ncnc2c(F)c(-c3cccc4ccc(F)c(C)c34)ncc12 [Example 285],782
6,"C=CC(=O)N1CC[C@@H]2[C@H]1CN2c1ncnc2c(F)c(-c3cc(O)cc4cccc(Cl)c34)ncc12 [Example 288, 1-((1R,5R)-6-(7-(8-chloro-3-hydroxynaphthalen-1-yl)-8-fluoropyrido[4,3-d]pyrimidin-4-yl)-2,6-diazabicyclo[3.2.0]heptan-2-yl)prop-2-en-1-one]",15
7,"C=CC(=O)N1CC[C@@H]2[C@H]1CN2c1nc(OC[C@@H]2CCCN2C)nc2c(F)c(-c3cc(O)cc4cccc(Cl)c34)ncc12 [Example 289, 1-((1R, 5R)-6-(7-(8-chloro-3-hydroxynaphthalen-1-yl)-8-fluoro-2-(((S)-1-methylpyrrolidin-2-yl)methoxy)pyrido[4,3-d]pyrimidin-4-yl)-2,6-diazabicyclo[3.2.0]heptan-2-yl)prop-2-en-1-one]",40
8,"C#Cc1c(F)ccc2cccc(-c3ncc4c(N5C[C@@H]6[C@H]5CCN6C(=O)C=C)ncnc4c3F)c12 [Example 290, 1-((1R, 5R)-6-(7-(8-ethynyl-7-fluoronaphthalen-1-yl)-8-fluoropyrido[4,3-d]pyrimidin-4-yl)-2,6-diazabicyclo[3.2.0]heptan-2-yl)prop-2-en-1-one]",30
9,"C#Cc1cccc2cc(O)cc(-c3ncc4c(N5C[C@@H]6[C@H]5CCN6C(=O)C=C)ncnc4c3F)c12 [Example 291, 1-((1R,5R)-6-(7-(8-ethynyl-3-hydroxynaphthalen-1-yl)-8-fluoropyrido[4,3-d]pyrimidin-4-yl)-2,6-diazabicyclo[3.2.0]heptan-2-yl)prop-2-en-1-one]",2
10,"C#Cc1cccc2cc(O)cc(-c3ncc4c(N5C[C@@H]6[C@H]5CCN6C(=O)C=C)nc(OC[C@@H]5CCCN5C)nc4c3F)c12 [Example 292, 1-((1R,5R)-6-(7-(8-ethynyl-3-hydroxynaphthalen-1-yl)-8-fluoro-2-(((S)-1-methylpyrrolidin-2-yl)methoxy)pyrido[4,3-d]pyrimidin-4-yl)-2,6-diazabicyclo[3.2.0]heptan-2-yl)prop-2-en-1-one]",20
11,"C#Cc1cccc2cc(O)cc(-c3ncc4c(N5C[C@@H]6[C@H]5CCN6C(=O)C=C)nc(OCC56CCCN5CCC6)nc4c3F)c12 [Example 293, 1-((1R, 5R)-6-(7-(8-ethynyl-3-hydroxynaphthalen-1-yl)-8-fluoro-2-((tetrahydro-1H-pyrrolizin-7a(5H)-yl)methoxy)pyrido[4,3-d]pyrimidin-4-yl)-2,6-diazabicyclo[3.2.0]heptan-2-yl)prop-2-en-1-one]",65
12,"C#Cc1cccc2cc(Cl)cc(-c3ncc4c(N5C[C@@H]6[C@H]5CCN6C(=O)C=C)ncnc4c3F)c12 [Example 294, 1-((1R,5R)-6-(7-(3-chloro-8-ethynylnaphthalen-1-yl)-8-fluoropyrido[4,3-d]pyrimidin-4-yl)-2,6-diazabicyclo[3.2.0]heptan-2-yl)prop-2-en-1-one]",2150
13,C#Cc1cccc2cncc(-c3ncc4c(N5C[C@@H]6[C@H]5CCN6C(=O)C=C)ncnc4c3F)c12 [Example 295],418
14,C#Cc1c(F)ccc2cccc(-c3ncc4c(N5C[C@@H]6[C@H]5CCN6C(=O)C=C)nc(N5CC(N(C)C)C5)nc4c3F)c12 [Example 297],4
15,C#Cc1cccc2cccc(-c3ncc4c(N5C[C@@H]6[C@H]5CCN6C(=O)C=C)nc(N5CC(N(C)C)C5)nc4c3F)c12 [Example 298],24
16,"C#Cc1c(F)ccc2cccc(-c3ncc4c(N5C[C@@H]6[C@H]5CCN6C(=O)C(=C)F)ncnc4c3F)c12 [Example 299, 1-((1R,5R)-6-(7-(8-ethynyl-7-fluoronaphthalen-1-yl)-8-fluoropyrido[4,3-d]pyrimidin-4-yl)-2,6-diazabicyclo[3.2.0]heptan-2-yl)-2-fluoroprop-2-en-1-one]",1330
17,"C#Cc1c(F)ccc2cccc(-c3ncc4c(N5C[C@@H]6[C@H]5CCN6C(=O)/C=C/C(F)F)ncnc4c3F)c12 [Example 300, (E)-1-((1R,5R)-6-(7-(8-ethynyl-7-fluoronaphthalen-1-yl)-8-fluoropyrido[4,3-d]pyrimidin-4-yl)-2,6-diazabicyclo[3.2.0]heptan-2-yl)-4,4-difluorobut-2-en-1-one]",235
18,"C=CC(=O)N1CCN(c2ncnc3c(F)c(-c4c[n+]([O-])cc5ccccc45)ncc23)CC1 [Example 301, 4-(4-(4-acryloylpiperazin-1-yl)-8-fluoropyrido[4,3-d]pyrimidin-7-yl)isoquinoline 2-oxide]",10000
19,"C=CC(=O)N1CCN(c2ncnc3c(F)c(-c4cccc5cc(C)ccc45)ncc23)CC1 [Example 302, 1-(4-(8-fluoro-7-(6-methylnaphthalen-1-yl)pyrido[4,3-d]pyrimidin-4-yl)piperazin-1-yl)prop-2-en-1-one]",10000
20,"C=CC(=O)N1CC[C@@H]2[C@H]1CN2c1ncnc2c(F)c(-c3cccc4cccc(CC)c34)ncc12 [Example 303, 1-((1R, 5R)-6-(7-(8-ethylnaphthalen-1-yl)-8-fluoropyrido[4,3-d]pyrimidin-4-yl)-2,6-diazabicyclo[3.2.0]heptan-2-yl)prop-2-en-1-one]",714
21,"C=CC(=O)N1CC[C@@H]2[C@H]1CN2c1ncnc2c(F)c(-c3cccc4ccc(F)c(CC)c34)ncc12 [Example 304, 1-((1R,5R)-6-(7-(8-ethyl-7-fluoronaphthalen-1-yl)-8-fluoropyrido[4,3-d]pyrimidin-4-yl)-2,6-diazabicyclo[3.2.0]heptan-2-yl)prop-2-en-1-one]",456
